Test results reported in article PMC10998830 (Communications Chemistry, 2024).

Assays:
AbATPPRT [1] = biological target: T1, AbATPPRT (Acinetobacter baumannii, UniProt A0A7U3XWM9); assay: differential scanning fluorimetry, SYPRO Orange; assay type: binding; settings: 250 μM PRATP, 8 μM enzyme, pH 8.5, 15 mM MgCl2, 100 mM KCl; unlabelled enzyme
T1 construct: gene hisG; hetero-octameric holoenzyme (two HisGS dimers flanking a HisZ tetramer) reconstituted in vitro from separately purified recombinant AbHisGS (E. coli BL21(DE3)) and AbHisZ; unlabelled (natural isotope abundance)
T1 sequence (A0A7U3XWM9 1-227): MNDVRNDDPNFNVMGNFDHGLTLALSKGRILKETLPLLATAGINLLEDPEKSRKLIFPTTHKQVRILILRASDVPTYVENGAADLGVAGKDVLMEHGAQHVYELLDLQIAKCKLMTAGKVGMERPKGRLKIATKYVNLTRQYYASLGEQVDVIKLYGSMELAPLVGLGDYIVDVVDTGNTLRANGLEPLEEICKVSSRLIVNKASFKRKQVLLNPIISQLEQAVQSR
T1 sequence (B2HWK9 1-388 partner): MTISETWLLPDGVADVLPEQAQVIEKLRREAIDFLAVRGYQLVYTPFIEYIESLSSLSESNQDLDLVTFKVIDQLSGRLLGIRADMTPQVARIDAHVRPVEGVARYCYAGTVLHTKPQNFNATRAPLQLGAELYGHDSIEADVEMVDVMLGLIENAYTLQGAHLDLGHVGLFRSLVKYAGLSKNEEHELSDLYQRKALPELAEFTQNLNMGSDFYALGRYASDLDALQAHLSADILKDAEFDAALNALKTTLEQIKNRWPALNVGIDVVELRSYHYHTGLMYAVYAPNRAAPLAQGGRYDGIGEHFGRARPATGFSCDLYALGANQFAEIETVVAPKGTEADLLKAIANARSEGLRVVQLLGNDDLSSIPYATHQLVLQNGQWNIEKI

AbATPPRT [2] = biological target: T1, AbATPPRT; assay: dose-response of initial rate, PRATP formation; assay type: biochemical

Row | Structure (SMILES) | Tm increase (AbATPPRT [1]) | IC50 (AbATPPRT [2]) [µM]
1 | N=c1c2ncn([C@@H]3O[C@H](COP(=O)(O)OP(=O)(O)OP(=O)(O)O)[C@@H](O)[C@H]3O)c2ncn1[C@@H]1O[C@H](COP(=O)(O)O)[C@@H](O)[C@H]1O [PRATP] | the presence of PRATP led only to marginal and mass-independent increases in Tm | 
2 | N[C@@H](Cc1c[nH]cn1)C(=O)O [histidine] |  | 93 ± 6
